Experimental data taken from patent US20210246115A1 (Bioimics AB, priority 2017, published 2021).
Counter-ions that a name gives are not always drawn.

Columns and labels:
[1] = system: E. coli RNase P RNA, M1 RNA; assay: Inhibition of bacterial RNase P activity, IC50 determination (cleavage of pATSerUG by M1 RNA); format: biochemical; conditions: NI: No inhibition
[2] = system: Escherichia coli (ATCC25922); assay: MIC, broth microdilution (CLSI), Escherichia coli; conditions: Escherichia coli, ATCC25922, read-out: E. coli ATCC 25922 MIC, Table XIII
[3] = system: Staphylococcus aureus (ATCC25923); assay: MIC, broth microdilution (CLSI), Staphylococcus aureus ATCC25923; conditions: Staphylococcus aureus, ATCC25923, read-out: S. aureus ATCC 25923 MIC

Row | Compound | IC50 [1] | MIC [2] | MIC [3] | RNase P Inhibition IC50 [1]
1 | Cc1cccc(-c2ccc3c(c2)c(C(=O)N[C@H]2CC[C@H](N)CC2)cn3CC2CCCCC2)c1.Cl [Compound 269, N-((1r,4r)-4-aminocyclohexyl)-1-(cyclohexylmethyl)-5-(m-tolyl)-1H-indole-3-carboxamide hydrochloride salt] | 29 µM | > 512 µg/mL | 8 µg/mL | –
2 | Cl.N[C@H]1CC[C@H](NC(=O)CCc2cn(CC3CCCCC3)c3ccc(-c4cccc(OC(F)(F)F)c4)cc23)CC1 [Compound 213, N-((1R,4R)-4-aminocyclohexyl)-3-(1-(cyclohexylmethyl)-5-(3-(trifluoromethoxy)phenyl)-1H-indol-3-yl) propanamide hydrochloride salt] | 3 µM | 296 µg/mL | 18 µg/mL | –
3 | CN(C)CCNC(=O)CC(c1cn(CC2CCCCC2)c2ccccc12)C1CCNCC1 (stereo not drawn) [Compound 108, 3-(1-(cyclohexylmethyl)-1H-indol-3-yl)-N-(2-(dimethylamino)ethyl)-3-(piperidin-4-yl) propanamide hydrochloride salt] | 2080 µM | > 512 µg/mL | > 512 µg/mL | –
4 | Cc1cccc(C(CC(=O)NC2CCC(N)CC2)c2cn(CC3CCCCC3)c3ccc(C4=CCNCC4)cc23)c1 [Compound 228, N-((1S,4S)-4-aminocyclohexyl)-3-(1-(cyclohexylmethyl)-5-(1,2,3,6-tetrahydropyridin-4-yl)-1H-indol-3-yl)-3-(m-tolyl)propanamide hydrochloride salt] | 57 µM | 40 µg/mL | 10 µg/mL | –
5 | Cl.N[C@H]1CC[C@H](NC(=O)CCc2cn(CC3CCCCC3)c3ccc(Br)cc23)CC1 [Compound 156, N-((1R,4R)-4-aminocyclohexyl)-3-(5-bromo-1-(cyclohexylmethyl)-1H-indol-3-yl)propanamide hydrochloride salt] | 16 µM | 32 µg/mL | 16 µg/mL | –
6 | Cc1cccc(C(CC(=O)NC2CCC(N)CC2)c2cn(CC3CCCCC3)c3ccc(O)cc23)c1.Cl [Compound 165, N-((1S,4S)-4-aminocyclohexyl)-3-(1-(cyclohexylmethyl)-5-hydroxy-1H-indol-3-yl)-3-(m-tolyl)propanamide hydrochloride salt] | 18 µM | 67 µg/mL | 34 µg/mL | –
7 | Cc1cccc(C(CCNC[C@H]2CC[C@H](CN)CC2)c2cn(CC3CCCCC3)c3ccccc23)c1 (stereo partly drawn) [Compound 177, N-(((1R,4R)-4-(aminomethyl)cyclohexyl)methyl)-3-(1-(cyclohexylmethyl)-1H-indol-3-yl)-3-(m-tolyl)propan-1-amine hydrochloride salt] | 15 µM | 18 µg/mL | 9 µg/mL | –
8 | Cc1cccc(C(CC(=O)NC2CCC(N)CC2)c2cn(CC3CCCCC3)c3ccc(-c4ccccc4Cl)cc23)c1.Cl [Compound 224, N-((1S,4S)-4-aminocyclohexyl)-3-(5-(2-chlorophenyl)-1-(cyclohexylmethyl)-1H-indol-3-yl)-3-(m-tolyl)propanamide hydrochloride salt] | 2.9 µM | 82 µg/mL | 5 µg/mL | –
9 | Cl.N[C@H]1CC[C@H](NC(=O)CC(c2cc(Cl)cc(Cl)c2)c2cn(CC3CCCCC3)c3ccccc23)CC1 (stereo partly drawn) [Compound 136, N-((1r,4r)-4-aminocyclohexyl)-3-(1-(cyclohexylmethyl)-1H-indol-3-yl)-3-(3,5-dichlorophenyl) propanamide hydrochloride salt] | 9 µM | > 512 µg/mL | 64 µg/mL | –
10 | Cc1cccc(C(CC(=O)NC2CCC(N)CC2)c2cn(CC3CCCCC3)c3ccc(C#N)cc23)c1.Cl [Compound 236, N-((1S,4S)-4-aminocyclohexyl)-3-(5-cyano-1-(cyclohexylmethyl)-1H-indol-3-yl)-3-(m-tolyl)propanamide hydrochloride salt] | 20 µM | 68 µg/mL | 9 µg/mL | –
11 | Cc1cccc(C(CC(=O)NC2CCNCC2)c2cn(CC3CCC(F)(F)CC3)c3ccc(Br)cc23)c1.Cl (stereo not drawn) [Compound 287, 3-(5-bromo-1-((4,4-difluorocyclohexyl)methyl)-1H-indol-3-yl)-N-(piperidin-4-yl)-3-(m-tolyl)propanamide hydrochloride salt] | 15 µM | 78 µg/mL | 10 µg/mL | –
12 | Cc1cccc(C(CC(=O)NC2CCNCC2)c2cn(CC3CCCCC3)c3ccccc23)c1.Cl (stereo not drawn) [Compound 89, 3-(1-(cyclohexylmethyl)-1H-indol-3-yl)-N-(piperidin-4-yl)-3-(m-tolyl)propanamide hydrochloride salt] | 37 µM | 32 µg/mL | 8 µg/mL | –
13 | Cl.N[C@H]1CC[C@H](NC(=O)CC(c2cccnc2)c2cn(Cc3ccccc3)c3ccccc23)CC1 (stereo partly drawn) [Compound 99, N-((1R,4R)-4-aminocyclohexyl)-3-(1-benzyl-1H-indol-3-yl)-3-(pyridin-3-yl)propanamide hydrochloride salt] | 18 µM | > 512 µg/mL | 256 µg/mL | –
14 | Cl.c1ccc2c(CCNCC3CCCC3)c[nH]c2c1 [Compound 20, N-(cyclopentylmethyl)-2-(1H-indol-3-yl)ethan-1-amine hydrochloride salt] | 4140 µM | > 512 µg/mL | > 512 µg/mL | –
15 | Cc1cccc(C(CC(=O)NC2CCNCC2)c2cn(Cc3ccccc3)c3ncccc23)c1.Cl (stereo not drawn) [Compound 70, 3-(1-benzyl-1H-pyrrolo[2,3-b]pyridin-3-yl)-N-(piperidin-4-yl)-3-(m-tolyl)propanamide hydrochloride salt] | 1090 µM | > 512 µg/mL | 250 µg/mL | –
16 | Cc1cccc(C(CC(=O)NCC2CCC(N)CC2)c2cn(CC3CCCCC3)c3ccc(Br)cc23)c1.Cl [Compound 214, N-(((1R,4R)-4-aminocyclohexyl)methyl)-3-(5-bromo-1-(cyclohexylmethyl)-1H-indol-3-yl)-3-(m-tolyl)propanamide hydrochloride salt] | 13 µM | > 512 µg/mL | 10 µg/mL | –
17 | Cc1cccc(C(CC(=O)NC2CCNCC2)c2cn(CC3CCOCC3)c3ccc(Br)cc23)c1.Cl (stereo not drawn) [Compound 285, 3-(5-bromo-1-((tetrahydro-2H-pyran-4-yl)methyl)-1H-indol-3-yl)-N-(piperidin-4-yl)-3-(m-tolyl) propanamide hydrochloride salt] | 74 µM | 147 µg/mL | 37 µg/mL | –
18 | Cl.NC1CCC(NC(=O)CC(c2ccnc(O)c2)c2cn(CC3CCCCC3)c3ccccc23)CC1 [Compound 157, N-((1S,4S)-4-aminocyclohexyl)-3-(1-(cyclohexylmethyl)-1H-indol-3-yl)-3-(2-hydroxypyridin-4-yl)propanamide hydrochloride salt] | 3.4 µM | 262 µg/mL | 131 µg/mL | –
19 | Cc1cccc(C(CC(=O)N[C@H]2CC[C@H](N)CC2)c2cn(CC3CCCC3)c3ccccc23)c1.Cl (stereo partly drawn) [Compound 111, N-((1R,4R)-4-aminocyclohexyl)-3-(1-(cyclopentylmethyl)-1H-indol-3-yl)-3-(m-tolyl)propanamide hydrochloride salt] | 6.8 µM | 32 µg/mL | 4 µg/mL | –
20 | Cc1cccc(C(CC(=O)NC2CCNCC2)c2cn(Cc3ccccc3)c3ccccc23)c1.Cl (stereo not drawn) [Compound 80, 3-(1-benzyl-1H-indol-3-yl)-N-(piperidin-4-yl)-3-(m-tolyl)propanamide hydrochloride salt] | 41 µM | 64 µg/mL | 32 µg/mL | –
21 | Cl.O=C(CCc1cn(CC2CCCCC2)c2ccccc12)NCCC1CCNCC1 [Compound 117, 3-(1-(cyclohexylmethyl)-1H-indol-3-yl)-N-(2-(piperidin-4-yl)ethyl)propanamide hydrochloride salt] | 166 µM | 256 µg/mL | 256 µg/mL | –
22 | N[C@H]1CC[C@H](NCCCc2cn(CC3CCCCC3)c3ccc(Br)cc23)CC1 [Compound 211, (1R,4R)-N1-(3-(5-bromo-1-(cyclohexylmethyl)-1H-indol-3-yl)propyl)cyclohexane-1,4-diamine hydrochloride salt] | 20 µM | 8 µg/mL | 4 µg/mL | –
23 | Cc1cccc(C(CC(=O)NCC2CCC(N)CC2)c2cn(CC3CCCCC3)c3ccccc23)c1.Cl [Compound 180, N-(((1R,4R)-4-aminocyclohexyl)methyl)-3-(1-(cyclohexylmethyl)-1H-indol-3-yl)-3-(m-tolyl)propanamide hydrochloride salt] | 18 µM | 67 µg/mL | 17 µg/mL | –
24 | Cc1cccc(C(CC(=O)N[C@H]2CC[C@@H](N)CC2)c2cn(CC3CCCCC3)c3ccccc23)c1.Cl (stereo partly drawn) [Compound 114, N-((1s,4s)-4-aminocyclohexyl)-3-(1-(cyclohexylmethyl)-1H-indol-3-yl)-3-(m-tolyl)propanamide hydrochloride salt] | 14 µM | 64 µg/mL | 8 µg/mL | –
25 | Cc1cccc(C(CC(=O)NC2CCNCC2)c2cn(CC3CCCCC3)c3ccc(F)cc23)c1.Cl (stereo not drawn) [Compound 118, 3-(1-(cyclohexylmethyl)-5-fluoro-1H-indol-3-yl)-N-(piperidin-4-yl)-3-(m-tolyl)propanamide hydrochloride salt] | 39 µM | 32 µg/mL | 8 µg/mL | –
26 | Cc1cccc(C(CC(=O)N[C@H]2CC[C@H](N)CC2)c2cn(C(C)C)c3ccccc23)c1.Cl (stereo partly drawn) [Compound 154, N-((1R,4R)-4-aminocyclohexyl)-3-(1-isopropyl-1H-indol-3-yl)-3-(m-tolyl)propanamide hydrochloride salt] | 1230 µM | 256 µg/mL | 128 µg/mL | –
27 | Cc1cccc(C(CC(=O)NC2CCC(C(=O)NO)CC2)c2cn(CC3CCCCC3)c3ccccc23)c1 [Compound 247, (1S,4S)-4-(3-(1-(cyclohexylmethyl)-1H-indol-3-yl)-3-(m-tolyl)propanamido)-N-hydroxycyclohexane-1-carboxamide hydrochloride salt] | – | > 512 µg/mL | > 512 µg/mL | Ni
